Tests used:
Assay in all cases: combination Emax (second highest fraction inhibited in the dose matrix, 72 h); higher = more inhibition; extreme values may be limits of the assay
[1] = system: OVCAR-5 (Ovarian Carcinoma)
How it was run: (§1)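 After 24 hours at 37°C and 5% CO2 in 1536-well plates, cells in DMEM/F12 or RPMI plus 10% FBS received two-drug dose matrices for 72 hours. Viability came from CellTiter-Glo 2.0 luminescence and was scaled as inhibition, anchored at 0 by vehicle wells and at 1 by blank wells. Combination Emax is taken as the second-highest inhibition in the matrix, and Bliss excess as the observed combination effect less EA + EB − EA·EB, with EA and EB the single-agent effects.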

[2] = system: ALL-PO (B-Lymphoblastic Leukemia)
How it was run: as §1

[3] = system: BE-13 (T-Lymphoblastic Leukemia)
How it was run: as §1

[4] = system: OV-56 (Ovarian Carcinoma)
How it was run: as §1

[5] = system: NCI-H524 (Small Cell Lung Carcinoma)
How it was run: as §1

[6] = system: TGBC1TKB (Biliary Tract Carcinoma)
How it was run: as §1

[7] = system: HuH-7 (Hepatocellular Carcinoma)
How it was run: as §1

[8] = system: LOXIMVI (Melanoma)
How it was run: as §1

[9] = system: A673 (Ewing's Sarcoma)
How it was run: as §1

[10] = system: SW1710 (Bladder Carcinoma)
How it was run: as §1

[11] = system: NCI-H2052 (Mesothelioma)
How it was run: as §1

[12] = system: SNU-449 (Hepatocellular Carcinoma)
How it was run: as §1

[13] = system: SNU-16 (Gastric Carcinoma)
How it was run: as §1

[14] = system: WSU-NHL (B-Cell Non-Hodgkin's Lymphoma)
How it was run: as §1

[15] = system: YAPC (Pancreatic Carcinoma)
How it was run: as §1

[16] = system: NCI-H2722 (Mesothelioma)
How it was run: as §1

[17] = system: LNZTA3WT4 (Low Grade Glioma)
How it was run: as §1

[18] = system: NCI-H1568 (Lung Adenocarcinoma)
How it was run: as §1

[19] = system: HuCCT1 (Biliary Tract Carcinoma)
How it was run: as §1

[20] = system: ESS-1 (Other Solid Carcinomas)
How it was run: as §1

| SMILES | combination Emax [1] | combination Emax [2] | combination Emax [3] | combination Emax [4] | combination Emax [5] | combination Emax [6] | combination Emax [7] | combination Emax [8] | combination Emax [9] | combination Emax [10] | combination Emax [11] | combination Emax [12] | combination Emax [13] | combination Emax [14] | combination Emax [15] | combination Emax [16] | combination Emax [17] | combination Emax [18] | combination Emax [19] | combination Emax [20] |
| --- | --- | --- | --- | --- | --- | --- | --- | --- | --- | --- | --- | --- | --- | --- | --- | --- | --- | --- | --- | --- |
| CC1(C)CCC(CN2CCN(c3ccc(C(=O)NS(=O)(=O)c4ccc(NCC5CCOCC5)c([N+](=O)[O-])c4)c(Oc4cnc5[nH]ccc5c4)c3)CC2)=C(c2ccc(Cl)cc2)C1 [Venetoclax] + C=CCn1c(=O)c2cnc(Nc3ccc(N4CCN(C)CC4)cc3)nc2n1-c1cccc(C(C)(C)O)n1 [AZD1775] (first compound max 1 µM, partner max 1 µM) | 0.75 | 1 | 1 | 0.168 | 0.895 | 0.35 | 0.386 | 0.622 | 0.862 | 0.315 | 0.249 | 0.239 | 0.912 | 0.985 | 0.307 | 0.311 | 0.917 | 0.479 | 0.69 | 1 |
| COc1nnc2ccc(N3CCC(c4ccc(OCCN5CCN(C)C(=O)[C@H]5C)cc4)CC3)nn12 [AZD5153] + Cc1c2c(nn1C)CSCc1cc(n(C)n1)CSc1cc(c3ccccc3c1)OCCCc1c(C(=O)O)n(C)c3c-2c(Cl)ccc13 [AZD5991] (first compound max 1 µM, 7x7, partner max 1 µM) | 0.496 | 1 | 0.998 | 0.351 | 0.934 | 0.289 | 0.755 | 0.975 | 0.699 | 0.355 | 0.328 | 0.292 | 1 | 1 | 0.365 | 0.508 | 0.441 | 0.393 | 0.495 | 0.898 |
| CC(=O)c1c(C)c2cnc(Nc3ccc(N4CCNCC4)cn3)nc2n(C2CCCC2)c1=O [Palbociclib] + Cc1c2c(nn1C)CSCc1cc(n(C)n1)CSc1cc(c3ccccc3c1)OCCCc1c(C(=O)O)n(C)c3c-2c(Cl)ccc13 [AZD5991] (first compound max 10 µM, 7x7, partner max 1 µM) | 0.389 | 1 | 0.815 | 0.0925 | 0.808 | 0.164 | 0.215 | 0.543 | 0.453 | 0.29 | 0.304 | 0.335 | 0.973 | 0.928 | 0.288 | 0.213 | 0.411 | 0.418 | 0.32 | 0.266 |
| COc1cccc(OCCCN)c1-c1cc(Nc2cnc(C#N)cn2)n[nH]1 [Prexasertib] + C[C@@H]1COCCN1C2=NC(=NC(=C2)C3(CC3)[S@](=N)(=O)C)C4=C5C=CNC5=NC=C4 [AZD6738] (first compound max 1 µM, 7x7, partner max 10 µM) | 0.817 | 0.982 | 0.967 | 0.916 | 0.998 | 0.552 | 0.34 | 0.849 | 0.883 | 0.771 | 0.537 | 0.282 | 1 | 1 | 0.555 | 0.304 | 0.91 | 0.526 | 0.835 | 1 |
| NC1(C(=O)N[C@@H](CCO)c2ccc(Cl)cc2)CCN(c2ncnc3[nH]ccc23)CC1 [Capivasertib] + COc1nnc2ccc(N3CCC(c4ccc(OCCN5CCN(C)C(=O)[C@H]5C)cc4)CC3)nn12 [AZD5153] (first compound max 10 µM, 7x7, partner max 1 µM) | 0.624 | 0.9 | 0.644 | 0.41 | 0.667 | 0.39 | 0.518 | 0.952 | 0.434 | 0.587 | 0.427 | 0.224 | 0.854 | 1 | 0.309 | 0.473 | 0.57 | 0.305 | 0.609 | 0.738 |
| Cc1c2c(nn1C)CSCc1cc(n(C)n1)CSc1cc(c3ccccc3c1)OCCCc1c(C(=O)O)n(C)c3c-2c(Cl)ccc13 [AZD5991] + CC1(C)CCC(CN2CCN(c3ccc(C(=O)NS(=O)(=O)c4ccc(NCC5CCOCC5)c([N+](=O)[O-])c4)c(Oc4cnc5[nH]ccc5c4)c3)CC2)=C(c2ccc(Cl)cc2)C1 [Venetoclax] (first compound max 1 µM, 7x7, partner max 1 µM) | 0.159 | 1 | 0.916 | 0.173 | 0.629 | 0.161 | 0.306 | 0.229 | 0.868 | 0.168 | 0.229 | 0.23 | 0.994 | 0.975 | 0.146 | 0.122 | 0.203 | 0.248 | 0.203 | 0.39 |
| CCN(CCO)CCCOc1ccc2c(Nc3cc(CC(=O)Nc4cccc(F)c4)[nH]n3)ncnc2c1 [AZD2811] + O=C(c1cc(Cc2n[nH]c(=O)c3ccccc23)ccc1F)N1CCN(C(=O)C2CC2)CC1 [Olaparib] (first compound max 1 µM, 7x7, partner max 10 µM) | 0.184 | 0.975 | 0.824 | 0.179 | 0.945 | 0.0912 | 0.174 | 0.336 | 0.841 | 0.185 | 0.184 | 0.205 | 0.705 | 0.931 | 0.147 | 0.204 | 0.223 | 0.164 | 0.25 | 0.63 |
| CC1(C)CCC(CN2CCN(c3ccc(C(=O)NS(=O)(=O)c4ccc(NCC5CCOCC5)c([N+](=O)[O-])c4)c(Oc4cnc5[nH]ccc5c4)c3)CC2)=C(c2ccc(Cl)cc2)C1 [Venetoclax] + CN(C)CCCOc1ccc(-c2ccc3ncc4c(c3c2)n(C2CCOCC2)c(=O)n4C)cn1 [AZD0156] (first compound max 1 µM, 7x7, partner max 1 µM) | 0.405 | 0.516 | 0.612 | 0.183 | 0.321 | 0.244 | 0.26 | 0.588 | 0.835 | 0.239 | 0.235 | 0.243 | 0.152 | 0.811 | 0.175 | 0.175 | 0.4 | 0.319 | 0.231 | 0.93 |
| Cc1c2c(nn1C)CSCc1cc(n(C)n1)CSc1cc(c3ccccc3c1)OCCCc1c(C(=O)O)n(C)c3c-2c(Cl)ccc13 [AZD5991] + C1CN(CCC1(C(=O)N[C@@H](CCO)C2=CC=C(C=C2)Cl)N)C3=NC=NC4=C3C=CN4 [Capivasertib] (first compound max 1 µM, 7x7, partner max 3 µM) | 0.215 | 1 | 0.38 | 0.169 | 0.452 | 0.292 | 0.208 | 0.313 | 0.421 | 0.256 | 0.265 | 0.182 | 0.996 | 0.9 | 0.149 | 0.173 | 0.237 | 0.191 | 0.162 | 0.366 |
| Cc1c2c(nn1C)CSCc1cc(n(C)n1)CSc1cc(c3ccccc3c1)OCCCc1c(C(=O)O)n(C)c3c-2c(Cl)ccc13 [AZD5991] + CN(C)CCCOc1ccc(-c2ccc3ncc4c(c3c2)n(C2CCOCC2)c(=O)n4C)cn1 [AZD0156] (first compound max 1 µM, 7x7, partner max 1 µM) | 0.251 | 1 | 0.445 | 0.181 | 0.452 | 0.219 | 0.252 | 0.363 | 0.438 | 0.219 | 0.285 | 0.25 | 0.974 | 0.92 | 0.169 | 0.243 | 0.227 | 0.401 | 0.286 | 0.36 |
| COc1cccc2c1C(=O)c1c(O)c3c(c(O)c1C2=O)C[C@@](O)(C(=O)CO)C[C@@H]3O[C@H]1C[C@H](N)[C@H](O)[C@H](C)O1 [Doxorubicin] + Cc1cc2ncnn2cc1Nc1ncc2c(n1)n(C1CCOCC1)c(=O)n2C [AZD7648] (first compound max 1 µM, 7x7, partner max 10 µM) | 0.587 | 1 | 0.965 | 0.711 | 0.693 | 0.366 | 0.23 | 0.952 | 0.888 | 0.665 | 0.745 | 0.173 | 0.97 | 1 | 0.381 | 0.823 | 0.647 | 0.197 | 0.746 | 1 |
| Cc1c2c(nn1C)CSCc1cc(n(C)n1)CSc1cc(c3ccccc3c1)OCCCc1c(C(=O)O)n(C)c3c-2c(Cl)ccc13 [AZD5991] + C[C@@H](Nc1cc(F)cc(F)c1)c1cc(C(=O)N(C)C)cc2c(=O)cc(N3CCOCC3)oc12 [AZD8186] (first compound max 1 µM, 7x7, partner max 3 µM) | 0.267 | 1 | 0.384 | 0.212 | 0.436 | 0.377 | 0.208 | 0.268 | 0.557 | 0.307 | 0.374 | 0.216 | 0.986 | 0.987 | 0.182 | 0.197 | 0.232 | 0.225 | 0.4 | 0.372 |

— the supplement of paper PMC11061612
